Our source for the T/C values is PubChem BioAssay AID334 (DTP/NCI, 2004).

This assay deals with CD2F1 mice, intracerebral P388 leukemia, median survival T/C%. Put plainly: NCI In Vivo Anticancer Drug Screen. Data for tumor model P388 Leukemia (intracerebral) in CD2F1 (CDF1) mice. The note with it: endpoint: median survival time, higher = longer survival. Here is the method:
The antitumor activity of compounds was measured in mice bearing transplantable tumors. Survival or tumor size were measured and the results are expressed as the measurement made in the treated group (T) divided by the measurement made in the vehicle treated control group (C). The tumor model used in this assay is P388 Leukemia (intracerebral) in CD2F1 (CDF1) mice

The mark [1] stands for this setting: dose: 8.0 mg/kg/injection, schedule: Q01DX009 (ip), vehicle: saline.
The mark [2] stands for this setting: dose: 12.0 mg/kg/injection, schedule: Q01DX009 (ip), vehicle: saline.
Where [3] appears, read: dose: 18.0 mg/kg/injection, schedule: Q01DX009 (ip), vehicle: saline.
The mark [4] stands for this setting: dose: 27.0 mg/kg/injection, schedule: Q01DX009 (ip), vehicle: saline.

Structures are written as SMILES. Where “and” joins values, the source holds several entries; their conditions need not be identical. Identical values can stand only once. Inconclusive results and toxic doses are left out.

Regarding `CN(Cc1cnc2nc(N[Si](C)(C)C)nc(N[Si](C)(C)C)c2n1)c1ccc(C(=O)NC(CCC(=O)O[Si](C)(C)C)C(=O)O[Si](C)(C)C)cc1` (centres undefined), the T/C runs as follows: (dose: 0.63 mg/kg/injection, schedule: Q01DX009 (ip), vehicle: olive oil, sesame oil, peanut oil) 110 % of control; (dose: 0.63 mg/kg/injection, schedule: Q01DX009 (ip), vehicle: saline) 90 % of control; (dose: 1.25 mg/kg/injection, schedule: Q01DX009 (ip), vehicle: olive oil, sesame oil, peanut oil) 110 % of control; (dose: 1.25 mg/kg/injection, schedule: Q01DX009 (ip), vehicle: saline) 100 % of control; (dose: 1.9 mg/kg/injection, schedule: Q04DX003 (ip), vehicle: saline) 95 % of control; (dose: 2.5 mg/kg/injection, schedule: Q01DX009 (ip), vehicle: saline) 100 % of control. For the same molecule, the T/C by setting is: (dose: 3.8 mg/kg/injection, schedule: Q04DX003 (ip), vehicle: saline) 95 % of control; (dose: 5.0 mg/kg/injection, schedule: Q01DX009 (ip), vehicle: saline) 95 % of control; (dose: 15.0 mg/kg/injection, schedule: Q04DX003 (ip), vehicle: saline) 110 % of control; (dose: 30.0 mg/kg/injection, schedule: Q04DX003 (ip), vehicle: saline) 120 % of control; (dose: 60.0 mg/kg/injection, schedule: Q04DX003 (ip), vehicle: saline) 115 % of control.

Consider `CC(C)(C)N1CC1CNC(=O)C(=O)NCC1CN1C(C)(C)C` (centres undefined), for which the T/C (dose: 3.0 mg/kg/injection, schedule: Q01DX009 (ip), vehicle: saline with Tween-80) was 101 % of control; the T/C (dose: 3.12 mg/kg/injection, schedule: Q01DX009 (ip), vehicle: saline with Tween-80) is 104 % of control and 107 % of control; the T/C (dose: 6.0 mg/kg/injection, schedule: Q01DX009 (ip), vehicle: saline with Tween-80) was 121 % of control; the T/C (dose: 6.25 mg/kg/injection, schedule: Q01DX009 (ip), vehicle: saline with Tween-80) was 117 % of control and 111 % of control; the T/C (dose: 12.5 mg/kg/injection, schedule: Q01DX009 (ip), vehicle: saline with Tween-80) was 177 % of control; the T/C (dose: 25.0 mg/kg/injection, schedule: Q01DX009 (ip), vehicle: saline with Tween-80) is 105 % of control.

Regarding `CC1(C)N=C(N)N=C(N)N1c1ccc(OCC(=O)Nc2ccc(S(=O)(=O)F)cc2)c(Cl)c1`, the T/C runs as follows: (dose: 50.0 mg/kg/injection, schedule: Q04DX003 (ip), vehicle: saline) 111 % of control; (dose: 100.0 mg/kg/injection, schedule: Q04DX003 (ip), vehicle: saline) 100 % of control; (dose: 200.0 mg/kg/injection, schedule: Q04DX003 (ip), vehicle: saline) 111 % of control.

On to `O=C1N(Cl)C(=O)C(c2ccc(Cl)cc2)(c2ccc(Cl)cc2)N1Cl`, for which the T/C reads like this: (dose: 50.0 mg/kg/injection, schedule: Q01DX009 (ip), vehicle: saline with Tween-80) 94 % of control; (dose: 100.0 mg/kg/injection, schedule: Q01DX009 (ip), vehicle: saline with Tween-80) 105 % of control; (dose: 200.0 mg/kg/injection, schedule: Q01DX009 (ip), vehicle: saline with Tween-80) 94 % of control.

`CC1(C)N=C(N)N=C(N)N1c1ccc(CNC(=O)Nc2cccc(S(=O)(=O)F)c2)cc1`: the T/C runs as follows: (dose: 150.0 mg/kg/injection, schedule: Q04DX003 (ip), vehicle: saline) 122 % of control; (dose: 225.0 mg/kg/injection, schedule: Q04DX003 (ip), vehicle: saline) 116 % of control.

With `CC1(C)N=C(N)N=C(N)N1c1ccc(CCCCc2cccc(S(=O)(=O)F)c2)c(Cl)c1`, the T/C is 94 % of control under setting [1], 116 % of control under setting [2], 105 % of control under setting [3] and 88 % of control under setting [4].

On to `CC1(C)N=C(N)N=C(N)N1c1ccc(CCCCc2ccc(Cl)c(S(=O)(=O)F)c2)c(Cl)c1`, for which the T/C is, setting by setting: under setting [1], 105 % of control; under setting [2], 122 % of control; under setting [3], 116 % of control; under setting [4], 88 % of control.

For the molecule `CN(Cc1cnc2nc(N)nc(N)c2n1)c1ccc(C(=O)N[C@@H](CCC(=O)O)C(=O)O)cc1`, the T/C (dose: 0.38 mg/kg/injection, schedule: Q01DX009 (ip), vehicle: olive oil, sesame oil, peanut oil) is 110 % of control; the T/C (dose: 0.38 mg/kg/injection, schedule: Q01DX009 (ip), vehicle: saline) is 110 % of control; the T/C (dose: 0.75 mg/kg/injection, schedule: Q01DX009 (ip), vehicle: sodium bicarbonate) is 112 % of control; the T/C (dose: 0.75 mg/kg/injection, schedule: Q01DX009 (ip), vehicle: suspension in saline) was 123 % of control and 106 % of control; the T/C (dose: 1.2 mg/kg/injection, schedule: Q04DX003 (ip), vehicle: saline) was 105 % of control; the T/C (dose: 1.5 mg/kg/injection, schedule: Q01DX009 (ip), vehicle: sodium bicarbonate) was 112 % of control. In addition, the T/C (dose: 1.5 mg/kg/injection, schedule: Q01DX009 (ip), vehicle: suspension in saline) is 96 % of control and 100 % of control; the T/C (dose: 2.3 mg/kg/injection, schedule: Q01DX009 (ip), vehicle: sodium bicarbonate) is 112 % of control; the T/C (dose: 2.3 mg/kg/injection, schedule: Q01DX009 (ip), vehicle: suspension in saline) was 113 % of control and 103 % of control; the T/C (dose: 2.3 mg/kg/injection, schedule: Q04DX003 (ip), vehicle: saline) is 100 % of control; the T/C (dose: 3.4 mg/kg/injection, schedule: Q01DX009 (ip), vehicle: sodium bicarbonate) is 116 % of control; the T/C (dose: 3.4 mg/kg/injection, schedule: Q01DX009 (ip), vehicle: suspension in saline) was 120 % of control and 122 % of control. In addition, the T/C (dose: 4.6 mg/kg/injection, schedule: Q04DX003 (ip), vehicle: saline) is 110 % of control; the T/C (dose: 9.2 mg/kg/injection, schedule: Q04DX003 (ip), vehicle: saline) is 100 % of control; the T/C (dose: 18.4 mg/kg/injection, schedule: Q04DX003 (ip), vehicle: saline) is 115 % of control; the T/C (dose: 36.8 mg/kg/injection, schedule: Q04DX003 (ip), vehicle: saline) is 95 % of control.

Consider `CCCCCCOC(=O)C(N)Cc1ccc(N(CCCl)CCCl)cc1` (centres undefined), for which the T/C reads like this: (dose: 1.6 mg/kg/injection, schedule: Q03HX008 (ip), vehicle: saline) 105 % of control; (dose: 3.2 mg/kg/injection, schedule: Q03HX008 (ip), vehicle: saline) 115 % of control; (dose: 6.4 mg/kg/injection, schedule: Q03HX008 (ip), vehicle: saline) 110 % of control.

In the case of `CCCCCC(=O)O[C@]1(C(C)=O)CC[C@H]2[C@@H]3CCC4=CC(=O)CC[C@]4(C)[C@H]3CC[C@@]21C`, the T/C was 118 % of control and 105 % of control (dose: 8.0 mg/kg/injection, schedule: Q01DX009 (ip), vehicle: Klucel (hydroxypropylcellulose) (HPC)); 535 % of control (dose: 8.0 mg/kg/injection, schedule: Q01DX009 (ip), vehicle: saline with Tween-80); 100 % of control and 111 % of control (dose: 16.0 mg/kg/injection, schedule: Q01DX009 (ip), vehicle: Klucel (hydroxypropylcellulose) (HPC)); 100 % of control (dose: 16.0 mg/kg/injection, schedule: Q01DX009 (ip), vehicle: saline with Tween-80); 118 % of control and 105 % of control (dose: 32.0 mg/kg/injection, schedule: Q01DX009 (ip), vehicle: Klucel (hydroxypropylcellulose) (HPC)); 98 % of control (dose: 32.0 mg/kg/injection, schedule: Q01DX009 (ip), vehicle: saline with Tween-80). In addition, the T/C reads like this: (dose: 64.0 mg/kg/injection, schedule: Q01DX009 (ip), vehicle: Klucel (hydroxypropylcellulose) (HPC)) 102 % of control and 111 % of control; (dose: 128.0 mg/kg/injection, schedule: Q01DX009 (ip), vehicle: Klucel (hydroxypropylcellulose) (HPC)) 121 % of control and 100 % of control; (dose: 128.0 mg/kg/injection, schedule: Q01DX009 (ip), vehicle: saline with Tween-80) 107 % of control; (dose: 256.0 mg/kg/injection, schedule: Q01DX009 (ip), vehicle: Klucel (hydroxypropylcellulose) (HPC)) 120 % of control and 110 % of control; (dose: 256.0 mg/kg/injection, schedule: Q01DX009 (ip), vehicle: saline with Tween-80) 98 % of control; (dose: 512.0 mg/kg/injection, schedule: Q01DX009 (ip), vehicle: Klucel (hydroxypropylcellulose) (HPC)) 124 % of control and 105 % of control. Moreover, for the setting “dose: 512.0 mg/kg/injection, schedule: Q01DX009 (ip), vehicle: saline with Tween-80”, the T/C was 279 % of control.

Consider `N=[N+]=CC(=O)CCC(NC(=O)C(CCC(=O)C=[N+]=N)NC(=O)CCC(N)C(=O)O)C(=O)O` (centres undefined), for which the T/C was 106 % of control (dose: 0.05 mg/kg/injection, schedule: Q01DX005 (ip), vehicle: Klucel (hydroxypropylcellulose) (HPC)); 96 % of control and 104 % of control (dose: 0.1 mg/kg/injection, schedule: Q01DX005 (ip), vehicle: Klucel (hydroxypropylcellulose) (HPC)); 100 % of control and 103 % of control (dose: 0.2 mg/kg/injection, schedule: Q01DX005 (ip), vehicle: Klucel (hydroxypropylcellulose) (HPC)); 100 % of control and 105 % of control (dose: 0.4 mg/kg/injection, schedule: Q01DX005 (ip), vehicle: Klucel (hydroxypropylcellulose) (HPC)).
